By inhibition is commonly meant the relative decrease from the control value, in per cent.

Common to all, as to assay type: cell-based
The target in assay [1] is T1, ρ2 GABAC receptor (Homo sapiens, UniProt P28476).
T1 construct: gene GABRR2; human recombinant ρ2 GABAC receptors expressed in Xenopus oocytes
As to the kind of experiment: two-electrode voltage clamp in Xenopus oocytes, shift of GABA concentration-response curve. The settings on record: read-out: Kd.

Another assay deals with T2, α5β2γ2 GABAA receptor (Homo sapiens, UniProt P31644+P47870).
T2 construct: gene GABRA5; α5β2γ2 receptors expressed in Xenopus oocytes; with β2 and γ2 GABAA subunits
T2 sequence (P47870 26-512): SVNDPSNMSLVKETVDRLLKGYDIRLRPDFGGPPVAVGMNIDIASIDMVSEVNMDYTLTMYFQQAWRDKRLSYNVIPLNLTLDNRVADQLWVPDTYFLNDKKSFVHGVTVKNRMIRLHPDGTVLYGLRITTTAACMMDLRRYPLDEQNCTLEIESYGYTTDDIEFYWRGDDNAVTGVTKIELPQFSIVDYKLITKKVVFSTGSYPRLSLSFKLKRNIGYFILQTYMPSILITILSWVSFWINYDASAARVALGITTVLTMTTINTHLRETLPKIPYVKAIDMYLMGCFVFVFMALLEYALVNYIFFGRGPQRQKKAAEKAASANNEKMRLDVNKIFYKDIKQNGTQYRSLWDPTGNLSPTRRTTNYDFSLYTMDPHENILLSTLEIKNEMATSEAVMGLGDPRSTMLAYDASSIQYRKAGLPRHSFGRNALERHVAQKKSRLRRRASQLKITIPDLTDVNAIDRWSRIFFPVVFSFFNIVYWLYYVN
T2 sequence (P18507 40-475, further chain): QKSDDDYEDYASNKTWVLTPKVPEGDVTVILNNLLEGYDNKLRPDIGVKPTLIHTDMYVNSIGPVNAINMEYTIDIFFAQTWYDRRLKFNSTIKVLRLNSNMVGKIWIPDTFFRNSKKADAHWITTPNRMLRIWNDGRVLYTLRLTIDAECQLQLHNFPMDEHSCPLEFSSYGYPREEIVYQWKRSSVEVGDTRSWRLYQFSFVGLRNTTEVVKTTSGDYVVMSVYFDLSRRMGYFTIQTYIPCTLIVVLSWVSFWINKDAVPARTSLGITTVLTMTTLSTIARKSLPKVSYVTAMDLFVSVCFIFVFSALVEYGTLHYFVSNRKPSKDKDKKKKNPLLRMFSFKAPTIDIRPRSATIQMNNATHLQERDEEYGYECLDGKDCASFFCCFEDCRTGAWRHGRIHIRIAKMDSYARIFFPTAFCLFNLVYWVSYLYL
T2 sequence (P31644 32-462): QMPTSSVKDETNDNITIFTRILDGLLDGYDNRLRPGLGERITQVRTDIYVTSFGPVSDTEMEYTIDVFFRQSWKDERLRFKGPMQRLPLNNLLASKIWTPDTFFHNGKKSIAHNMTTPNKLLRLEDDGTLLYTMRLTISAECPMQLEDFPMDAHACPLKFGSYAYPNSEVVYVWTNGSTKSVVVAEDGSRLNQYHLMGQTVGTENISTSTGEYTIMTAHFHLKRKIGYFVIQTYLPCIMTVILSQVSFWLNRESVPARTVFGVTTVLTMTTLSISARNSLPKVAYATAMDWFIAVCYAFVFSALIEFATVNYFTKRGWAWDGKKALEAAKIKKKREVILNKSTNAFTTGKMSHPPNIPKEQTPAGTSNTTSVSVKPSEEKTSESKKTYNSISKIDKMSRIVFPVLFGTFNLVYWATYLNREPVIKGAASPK
The assay can be described thus: two-electrode voltage clamp in Xenopus oocytes, % inhibition of GABA ([…]) current at […]. Background: Two-electrode voltage clamp is typically applied to oocytes expressing channels or transporters.

Assay [2] concerns the target T1, ρ2 GABAC receptor. As to the kind of experiment: two-electrode voltage clamp in Xenopus oocytes, agonist dose-response.

T1 sequence (P28476 21-465): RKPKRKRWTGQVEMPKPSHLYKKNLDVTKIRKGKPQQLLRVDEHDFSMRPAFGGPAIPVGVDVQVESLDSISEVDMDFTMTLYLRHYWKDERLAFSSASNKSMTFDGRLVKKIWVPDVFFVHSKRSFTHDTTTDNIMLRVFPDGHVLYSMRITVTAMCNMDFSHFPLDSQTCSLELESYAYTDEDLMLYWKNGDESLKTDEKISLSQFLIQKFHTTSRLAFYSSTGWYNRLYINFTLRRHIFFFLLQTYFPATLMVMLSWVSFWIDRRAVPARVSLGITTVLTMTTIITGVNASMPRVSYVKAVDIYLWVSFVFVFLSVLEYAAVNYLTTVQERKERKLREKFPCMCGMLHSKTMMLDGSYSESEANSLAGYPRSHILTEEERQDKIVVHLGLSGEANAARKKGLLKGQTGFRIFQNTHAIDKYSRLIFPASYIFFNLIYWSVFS

For the compound `CCCCP(=O)(O)C1=CC[C@H](N)C1` [(S)-4-ACPBPA, (S)-4-amino-cyclopent-1-enyl butylphosphinic acid], the Kb on ρ2 GABAC receptor [1] came to 10.5 µM. Also, on α5β2γ2 GABAA receptor, the inhibition at 100 µM is 37 ± 1.5%.
For `CCCCP(=O)(O)C1=CC[C@@H](N)C1` [(R)-4-ACPBPA, (R)-4-amino-cyclopent-1-enyl butylphosphinic acid], the Kb on ρ2 GABAC receptor [1] amounted to 6 µM. On α5β2γ2 GABAA receptor, this compound showed an inhibition at 100 µM of 36 ± 2%.
As for `NCCCC(=O)O` [GABA, γ-aminobutyric acid], the EC50 on ρ2 GABAC receptor [2] is listed as ~ 1 µM.
